# Earlier results in patent US20230228654A1, “Blood Sampling Device and Method for PEth Measurement” (CAPITAINER AB, priority 2020, published 2023).
# System: PLD
# Details: Schröck et al, Alcohol 2018; cited from earlier work
row,SMILES,potency as PLD inhibitor
1,O=C(NCCN1CCC(n2c(=O)[nH]c3cc(Cl)ccc32)CC1)c1ccc(F)cc1 [halopemide],low potency
2,"O=C(NCCN1CCC(n2c(=O)[nH]c3ccccc32)CC1)c1cc2cc(F)ccc2[nH]1 [FIPI, 5-fluoro-2-indolyl-deschlorohalopemide]",low potency
